Results reported in US20230048888A1, “USE OF TRIAZOLOTRIAZINE DERIVATIVE IN TREATMENT OF DISEASES” (ZHEJIANG VIMGREEN PHARMACEUTICALS, LTD., priority 2019, published 2023).
Where two headings read alike, the source gives them in different places. Values belong to the compound of their own block, whether it stands above or below them.

Assays:
[1] = test system: 6-OHDA Parkinson's disease model with L-DOPA resistance; assay: 6-OHDA-induced rat rotation experiment, second stage: L-DOPA resistance (rotation response time); assay type: in vivo, Wistar rats
Description: After long-term use of levodopa, patients with Parkinson's disease are prone to drug resistance (end-of-dose phenomenon). That is, the duration of its pharmaceutical effect tends to gradually become shorter (shortened opening period), its efficacy will become weaker and weaker, and the symptoms of the patients are becoming more and more uncontrollable. By the combined use with the test compound, the efficacy of levodopa can be restored for patients with Parkinson's disease in the off phase, who have already experienced the end-of-dose phenomenon. The rat model of Parkinson's disease was constructed by fixed-point injection of 6-hydroxydopamine (6-OHDA) to damage the substantia nigra striatum, and then the animals were administrated with levodopa (L-DOPA)/Benserazide (BID) for a long term (3-4 weeks as planned). […] On Day 22, at 60 minutes before the intraperitoneal injection of L-DOPA (20 mg/kg)/Benserazide (5 mg/kg), each test group was orally administered with the vehicle, test drug or positive drug. […] Four rotation tests were performed on Days 0, 7, 14 and 21 respectively. On the day of test, both the test drug and the control drug were administered orally only once. On this day, all test animals were also administered with L-DOPA (20 mg/kg)/Benserazide (5 mg/kg) once by intraperitoneal injection to induce rotation. In the second stage, the time for counting rotation with the rotation counter is 180 min. [table] In the second stage, after the intraperitoneal injection of L-DOPA/Benserazide to the experimental animals, the total number of rotations was recorded every 5 min, and the number of rotations per 5 min was calculated based on this, and the 5 min with the largest number of rotations was found from it, and the number of rotations within this 5 min was defined as the peak number of rotations. The first 5 minutes when the number of rotations increased to 20% of the peak number of rotations was the starting point of the rotation response time, and the first 5 minutes when the number of rotations dropped to 20% of the peak number of rotations was the terminating point of the rotation response time. The time between the starting point and the terminating point was regarded as the rotation response time. The test results are represented as “mean±standard deviation”. The data was statistically analyzed by the SPSS16.0 software package. One-way ANOVA, paired sample T test and independent sample T test were used for comparison, with P<0.05 showing a statistical difference.

[2] = target: T1, Human adenosine ADORA2B receptor membrane protein (Homo sapiens, UniProt P29275); assay: Radioisotope ligand competitive binding, ADORA2B ([3H] DPCPX); settings: ADORA2B (IC50, nM, n = 3), binding test
T1 construct: purchased PerkinElmer ES-013-M400UA
T1 sequence (P29275 1-332): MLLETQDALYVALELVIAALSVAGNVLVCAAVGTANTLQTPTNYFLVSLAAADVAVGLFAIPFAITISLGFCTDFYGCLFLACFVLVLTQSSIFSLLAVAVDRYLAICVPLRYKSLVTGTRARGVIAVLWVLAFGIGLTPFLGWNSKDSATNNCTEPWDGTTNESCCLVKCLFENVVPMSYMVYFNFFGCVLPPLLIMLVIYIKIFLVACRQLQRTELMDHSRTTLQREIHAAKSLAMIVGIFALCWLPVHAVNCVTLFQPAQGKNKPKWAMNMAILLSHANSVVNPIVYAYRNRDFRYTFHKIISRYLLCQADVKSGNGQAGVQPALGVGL
Experimental: ADORA2B: 50 mM HEPES pH 7.0, 5 mM MgCl2, 1 mM EDTA
(§1) 4) Preparation of compounds: the test compounds and the reference compounds were separately diluted with 100% DMSO.
(§2) 1 μL of a sample to be tested and 1 μL of a reference compound were added to a 96-well plate in sequence. […] 100 μL of cells and 100 μL of isotopes were added to all experimental wells. The 96-well plate was sealed; ADORA1, ADORA2B, and ADORA3 were incubated for 1 hour on a shaker (300 rpm) at room temperature (22° C.); and ADORA2A was incubated for 2 hours on a shaker (300 rpm) at room temperature (22° C.). At the same time, a GF/C filter plate was soaked with ADORA1, ADORA2A, ADORA2B, and ADORA3 by using 0.3% PEI for at least 30 minutes at room temperature, at 50 μL/well. After the incubation was completed, the incubated reaction system was collected onto the GF/C filter plate with a Harvester, washed 4 times and then dried for 0.5 hours in an oven at 50° C. The bottom of the dried GF/C filter plate was sealed with a film, 50 μL of scintillation solution was added to each well, which was then sealed with a Top-seal-A film. With Microbeta readings, the data was analyzed by GraphPad Prism 5.0.
(§3) % Inhibition=100×(1−(Sample_raw value−Low control_Average)/(High control_Average−Low control_Average))
(§4) The data was fitted with “log(inhibitor) vs response-variable slope” in GraphPad Prism 5.0 to obtain IC50.

[3] = target: T2, Human adenosine ADORA1 receptor membrane protein (Homo sapiens, UniProt P30542); assay: Radioisotope ligand competitive binding, ADORA1 ([3H] DPCPX); settings: ADORA1 (IC50, nM, n = 3), binding test
T2 construct: purchased PerkinElmer ES-010-M400UA
T2 sequence (P30542 1-326): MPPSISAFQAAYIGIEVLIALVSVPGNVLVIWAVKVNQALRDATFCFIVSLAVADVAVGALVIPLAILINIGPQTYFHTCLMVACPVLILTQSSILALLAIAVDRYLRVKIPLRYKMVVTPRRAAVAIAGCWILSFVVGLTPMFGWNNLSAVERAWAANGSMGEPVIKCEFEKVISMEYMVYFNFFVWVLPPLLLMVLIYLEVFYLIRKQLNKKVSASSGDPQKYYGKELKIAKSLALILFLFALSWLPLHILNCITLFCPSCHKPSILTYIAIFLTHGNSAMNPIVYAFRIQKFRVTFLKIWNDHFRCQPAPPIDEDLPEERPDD
Experimental: ADORA1: 25 mM HEPES pH 7.4, 5 mM MgCl2, 1 mM CaCl2, 100 mM NaCl
as §1, §2, §3, §4

[4] = Pharmacokinetics of test compounds in SD rats (15.2; IV and PO, mixed administration); assay type: in vivo; settings: for Cl_pred / AUC(0-t) / Cmax / half-life: IV; for AUC(0-t) / Cmax / half-life: male, Sprague-Dawley, rat, plasma; for half-life: read-out: T½ (converted)
[5] = Group 3 (7.5 mg/kg, Day 22) + L-DOPA/Benserazide, before test drug
[6] = Group 4 (15 mg/kg, Day 22) + L-DOPA/Benserazide, before test drug
[7] = Group 6 (30 mg/kg, Day 22) + L-DOPA/Benserazide, before test drug
[8] = Group 7: 5 or 10 mg/kg oral BID*21 + L-DOPA/Benserazide
[9] = Group 5 (10 mg/kg, Day 22) + L-DOPA/Benserazide, before test drug
[10] = Group 8: 10 mg/kg oral BID*21 + L-DOPA/Benserazide

SMILES: CC(=O)O.Nc1nc(NCCc2ccc(NC3COC3)cc2)nc2nc(-c3ccco3)nn12 [Acetate of Compound 22, 2-(furan-2-yl)-N5-(4-(oxetane-3-ylamino)phenethyl)-[1,2,4]triazolo[1,5-a][1,3,5]triazine-5,7-diamine acetate]
Rotational reaction time - Day 0 [1, 5]: 129.0 ± 9.1 min | Rotational reaction time - Day 7 [1, 5]: 110.0 ± 27.1 min | Rotational reaction time - Day 14 [1, 5]: 109.5 ± 11.7 min | Rotational reaction time - Day 21 [1, 5]: 111.5 ± 14.0 min | Rotational reaction time - Day 22 ([1]; Group 3: 7.5 mg/kg single oral Day 22 + L-DOPA/Benserazide): 133.5 ± 30.0^ min | Rotational reaction time - Day 0 [1, 6]: 128.9 ± 11.7 min | Rotational reaction time - Day 7 [1, 6]: 113.3 ± 13.0 min | Rotational reaction time - Day 14 [1, 6]: 111.1 ± 17.8 min | Rotational reaction time - Day 21 [1, 6]: 97.5 ± 42.7 min | Rotational reaction time - Day 22 ([1]; Group 4: 15 mg/kg single oral Day 22 + L-DOPA/Benserazide): 146.3 ± 37.0& min | Rotational reaction time - Day 0 [1, 7]: 135.0 ± 13.1 min | Rotational reaction time - Day 7 [1, 7]: 121.0 ± 13.3 min | Rotational reaction time - Day 14 [1, 7]: 110.6 ± 21.9 min | Rotational reaction time - Day 21 [1, 7]: 104.4 ± 23.0 min | Rotational reaction time - Day 22 ([1]; Group 6: 30 mg/kg single oral Day 22 + L-DOPA/Benserazide): 153.9 ± 22.7& min | Rotational reaction time - Day 0 [1, 8]: 150.5 ± 11.9 min | Rotational reaction time - Day 7 [1, 8]: 145.6 ± 3.0 min | Rotational reaction time - Day 14 [1, 8]: 133.9 ± 8.9 min | Rotational reaction time - Day 21 [1, 8]: 128.3 ± 13.5 min | Effect on body weight of the test animal ([1]; during the test period, vs model control group): no significant effect on the body weight

SMILES: Nc1nc(NCCc2ccc(NC3COC3)cc2)nc2nc(-c3ccco3)nn12 [Compound 22, 2-(furan-2-yl)-N5-(4-(oxetan-3-ylamino)phenethyl)-[1,2,4]triazolo[1,5-a][1,3,5]triazine-5,7-diamine]
IC50 ([2]; Table 10 (IC50)): 344 ± 181 nM | IC50 ([2]; Table 11): 310 nM | IC50 ([3]; Table 10 (IC50)): 821 ± 54.2 nM | IC50 ([3]; Table 11): 564 nM

Cl_pred ([4]; 1 mg/kg): 188.857 mL/min/kg | AUC(0-t) ([4]; 1 mg/kg): 83.8 ng·h/mL | Cmax ([4]; 1 mg/kg): 139 ng/mL | half-life ([4]; 1 mg/kg): 28.2 min
SMILES: COCCNc1ccc(CCNc2nc(N)n3nc(-c4ccco4)nc3n2)cc1 [Compound 27, 2-(furan-2-yl)-N5-(4-((2-methoxyethyl)amino)phenethyl)-[1,2,4]triazolo[1,5-a][1,3,5]triazine-5,7-diamine]

IC50 ([2]; Table 10 (IC50)): 268 ± 87.5 nM | IC50 ([2]; Table 11): 242 nM | Cl_pred ([4]; 1 mg/kg): 11.834 mL/min/kg | Cl_pred ([4]; 1.64 mg/kg): 27.0478 mL/min/kg | Cl_F_pred ([4]; PO, […]): 23.254 mL/min/kg | F ([4]; PO, […]): 116.3% | AUC(0-t) ([4]; 1 mg/kg): 1410 ng·h/mL | Cmax ([4]; 1 mg/kg): 1280 ng/mL | half-life ([4]; 1 mg/kg): 46.8 min | AUC(0-t) ([4]; 1.64 mg/kg): 1010 ng·h/mL | Cmax ([4]; 1.64 mg/kg): 1310 ng/mL | half-life ([4]; 1.64 mg/kg): 31.8 min | IC50 ([3]; Table 10 (IC50)): 552 ± 283 nM | IC50 ([3]; Table 11): 441 nM
SMILES: Cn1nnc(-c2ccc(CCNc3nc(N)n4nc(-c5ccco5)nc4n3)cc2)n1 [Compound 40, N5-(4-(2-methyl-2H-tetrazol-5-yl)phenethyl)-2-(furan-2-yl)-[1,2,4]triazolo[1,5-a][1,3,5]triazine-5,7-diamine]

SMILES: CCn1c(=O)c2c(nc(/C=C/c3ccc(OC)c(OC)c3)n2C)n(CC)c1=O [Istradefylline, reference compound]
Rotational reaction time - Day 0 [1, 9]: 116.1 ± 34.4 min | Rotational reaction time - Day 7 [1, 9]: 126.7 ± 10.6 min | Rotational reaction time - Day 14 [1, 9]: 116.3 ± 13.8 min | Rotational reaction time - Day 21 [1, 9]: 114.4 ± 15.9 min | Rotational reaction time - Day 22 ([1]; Group 5: 10 mg/kg single oral Day 22 + L-DOPA/Benserazide): 150.6 ± 37.8& min | Rotational reaction time - Day 0 [1, 10]: 161.5 ± 14.2 min | Rotational reaction time - Day 7 [1, 10]: 125.0 ± 23.5 min
